Measurements as given in patent US12097210B2, “Concomitant administration of glucocorticoid receptor modulators and CYP3A inhibitors” (Corcept Therapeutics, Inc., priority 2017, dated 2024).

Experiment: Example 1: effect of oral ketoconazole (400 mg OD or 200 mg BID) on plasma pharmacokinetics of a 300 mg single dose of mifepristone, fasted
Assay type: in vivo, human
Conditions: Keto 200 mg BID vs 400 mg OD
Excerpt: This study was an open-label study in healthy male subjects.
Healthy male volunteers between the ages of 18 to 45 years of age with a body mass index (BMI) ranging between 19 and 32 kg/m2 and a weight of at least 60 kg (132 lbs) were enrolled. Subjects had no clinically significant abnormal findings on the physical examination, ECG, blood pressure, heart rate, medical history, or clinical laboratory results during screening. The QTc interval at screening was less than 450 msec.
In cohort 1, six subjects received ketoconazole 400 mg OD for 14 days.
Subjects remained in the clinic on Days 2 and 3 to receive 400 mg OD oral ketoconazole fasted, and for safety evaluation and collection of blood pharmacokinetic (PK) samples. Subjects were discharged from the clinic on Day 4 following administration of 400 mg OD oral ketoconazole fasted, and returned to the clinic the mornings of Days 5 through 13 to receive 400 mg OD oral ketoconazole fasted.
In cohort 2, six subjects received ketoconazole 200 mg BID for 14 days. […] All 12 subjects completed the study. […]
Subjects in both cohorts returned to the study center on Day 15 for safety monitoring, and completion of the Termination Visit procedures, followed by discharge from the study. Safety was assessed by spontaneously reported adverse events, physical examinations, and routine clinical laboratory tests. […]

**Q.** For `CC#C[C@]1(O)CC[C@H]2[C@@H]3CCC4=CC(=O)CCC4=C3[C@@H](c3ccc(N(C)C)cc3)C[C@@]21C` [Mifepristone, 11β-(4-dimethylaminophenyl)-17β-hydroxy-17α-(1-propynyl)-estra-4,9-dien-3-one], which “Mean Ratio AUCtotal (C2/C1)” value (geometric mean ratio (AUCinf in text)) is on record?
**A.** 1.05

**Q.** What about the “Mean Ratio Cmax (C2/C1)” value (geometric mean ratio) of the same compound?
**A.** 1.15
